This passage reports mortality results from US8648081B2 (Eli Lilly and Company, priority 2011, dated 2014).

In this experiment the test system is Lone star tick larvae (Amblyomma americanum). As to the kind of experiment: In Vitro Larval Immersion Microassay (LIM). The following applies: read-out: % Efficacy (percent larval mortality).

SMILES strings stand for the structures.

Regarding `FC(F)(F)C1(c2cc(Cl)cc(Cl)c2)CC(c2cc3cccnc3s2)=NO1` (stereo not drawn) [Example 232, 2-[5-(3,5-Dichloro-phenyl)-5-tri-fluoromethyl-4,5-dihydro-isoxazol-3-yl]-thieno[2,3-b] pyridine], the mortality at 300 µM was not below 80%.

Take `FC(F)(F)C1(c2cc(Cl)cc(Cl)c2)CC(c2cc3ccccc3s2)=NO1` (stereo not drawn) [Example 233, 3-(benzo[b]thio-phen-2-yl)-5-(3,5-dichlorophenyl)-5-(trifluoromethyl)-4,5-dihydroisoxazole]: the mortality at 300 µM is not below 80%.

In the case of `Cc1ccc2sc(C3=NOC(c4cc(Cl)cc(Cl)c4)(C(F)(F)F)C3)cc2c1` (stereo not drawn) [Example 236, 5-(3,5-dichloro-phenyl)-3-(5-methyl-benzo[b]thiophen-2-yl)-5-(trifluoro-methyl)-4,5-dihydro-isoxazole], the mortality at 300 µM was not below 80%.

For the compound `FC(F)(F)C1(c2cc(Cl)cc(Cl)c2)CC(c2cc3cc(Cl)ccc3s2)=NO1` (stereo not drawn) [Example 237, 3-(5-chlorobenzo [b]thiophen-2-yl)-5-(3,5-dichloro-phenyl)-5-(trifluoro-methyl)-4,5-dihydroisoxazole], the mortality at 300 µM is not below 80%.

For the compound `O=C(CNC(=O)c1cnc2sc(C3=NOC(c4cc(Cl)cc(Cl)c4)(C(F)(F)F)C3)cc2c1)NCC(F)(F)F` (stereo not drawn) [Example 240, 2-(5-(3,5-dichlorophenyl)-5-(trifluoromethyl)-4,5-dihydroisoxazol-3-yl)-N-(2-oxo-2-(2,2,2-trifluoroethylamino)ethyl)thieno[2,3-b]pyridine-5-carboxamide], the mortality at 300 µM is not below 80%.

Regarding `O=C(N[C@@H]1CCNC1=O)c1cnc2sc(C3=NOC(c4cc(Cl)cc(Cl)c4)(C(F)(F)F)C3)cc2c1` (stereo partly drawn) [Example 241, 2-(5-(3,5-dichloro-phenyl)-5-(trifluoro-methyl)-4,5-dihydro-isoxazol-3-yl)-N-((R)-2-oxopyrrolidin-3-yl)thieno[2,3-b] pyridine-5-carboxamide], the mortality at 300 µM is not below 80%.

As to `O=C(CNC(=O)c1sc(C2=NO[C@@](c3cc(Cl)c(F)c(Cl)c3)(C(F)(F)F)C2)c2c1CCC2)NCC(F)(F)F` [Example 243, (S)-3-(5-(3,5-dichloro-4-fluorophenyl)-5-(trifluoromethyl)-4,5-dihydroisoxazol-3-yl)-N-(2-oxo-2-(2,2,2-trifluoroethylamino)ethyl)-5,6-dihydro-4H-cyclopenta[c]thiophene-1-carboxamide], the mortality at 300 µM was not below 80%.

For the compound `O=C(CNC(=O)c1sc(C2=NOC(c3cc(Cl)c(F)c(Cl)c3)(C(F)(F)F)C2)c2c1CCC2)NCC(F)F` (stereo not drawn) [Example 244, 3-[5-(3,5-dichloro-4-fluoro-phenyl)-5-trifluoromethyl-4,5-dihydro-isoxazol-3-yl]-5,6-dihydro-4H-cyclopenta[c]thiophene-1-carboxylic acid [(2,2-difluoro-ethylcarbamoyl)-methyl]-amide], the mortality at 300 µM was not below 80%.

As for `O=C(CNC(=O)c1sc(C2=NO[C@@](c3cc(Cl)c(F)c(Cl)c3)(C(F)(F)F)C2)c2c1CCC2)NCC(F)F` [Example 245, (S)-3-[5-(3,5-dichloro-4-fluoro-phenyl)-5-trifluoromethyl-4,5-dihydro-isoxazol-3-yl]-5,6-dihydro-4H-cyclopenta[c]thiophene-1-carboxylic acid [(2,2-difluoro-ethylcarbamoyl)-methyl]-amide], the mortality at 300 µM is not below 80%.

For `O=C(CNC(=O)c1sc(C2=NOC(c3cc(Cl)c(F)c(Cl)c3)(C(F)(F)F)C2)c2c1CCC2)NCCF` (stereo not drawn) [Example 246, 3-[5-(3,5-Dichloro-4-fluoro-phenyl)-5-trifluoromethyl-4,5-dihydro-isoxazol-3-yl]-5,6-dihydro-4H-cyclopenta[c]thiophene-1-carboxylic acid [(2-fluoro-ethylcarbamoyl)-methyl]-amide], the mortality at 300 µM is not below 80%.

On to `O=C(CNC(=O)c1sc(C2=NO[C@@](c3cc(Cl)c(F)c(Cl)c3)(C(F)(F)F)C2)c2c1CCC2)NCCF` [Example 247, (S)-3-[5-(3,5-Dichloro-4-fluoro-phenyl)-5-trifluoromethyl-4,5-dihydro-isoxazol-3-yl]-5,6-dihydro-4H-cyclopenta[c]thiophene-1-carboxylic acid [(2-fluoro-ethylcarbamoyl)-methyl]-amide], for which the mortality at 300 µM is not below 80%.

`C#CCNC(=O)CNC(=O)c1sc(C2=NO[C@@](c3cc(Cl)c(F)c(Cl)c3)(C(F)(F)F)C2)c2c1CCC2` [Example 249, (S)-3-(5-(3,5-dichloro-4-fluorophenyl)-5-(trifluoromethyl)-4,5-dihydroisoxazol-3-yl)-N-(2-oxo-2-(prop-2-ynylamino)ethyl)-5,6-dihydro-4H-cyclopenta[c]thiophene-1-carboxamide]: the mortality at 300 µM is not below 80%.
